# Where two headings read alike, the source gives them in different places. *1 amine or outer side, *2 acyl side, *3 side chain or, on linkers, in order; H or OH if unused. Where a SMILES comes first, the peptide text is derived from it. Bridges are numbered along the chain shown (N, C = ends). [ ]: non-standard residue; d: D form. The star is where a group is joined. Orn(4R-OH,5R-OCH2CH2NMe3+) = C[N+](C)(C)CCO[C@@H](N[*:3])[C@H](O)C[C@H](N[*:1])C(=O)[*:2]; pTerphenylCO(4''-OnC5H11) = CCCCCOc1ccc(-c2ccc(-c3ccc(C(=O)*)cc3)cc2)cc1; hTyr(3S-OH,4S-OH) = N[C@H](C(=O)O)[C@H](O)[C@@H](O)c1ccc(O)cc1; Pro(3S-OH,4S-Me) = C[C@H]1CN[C@H](C(=O)O)[C@H]1O; Hyp = O=C(O)[C@@H]1C[C@@H](O)CN1
# Tests used:
# [1] = Multiple ascending dose IV study in healthy adult subjects (safety, PK); format: in vivo, human; details: for AUC(0-t) / Cmax: human, plasma, intravenous; for AUC(0-t): read-out: AUC0-168
# Protocol: A second study of CD101 administered by IV injection to healthy adult subjects was also performed. In this study, subjects in 3 cohorts of 8 subjects (6 active, 2 placebo) each were randomized to receive multiple IV doses of CD101 or placebo (normal saline) infused over 60 (±5) minutes. Dose levels of CD101 assessed follow an ascending multiple-dose regimen (100 mg×2 doses, 200 mg×2 doses, or 400 mg×3 doses).
# Pharmacokinetics were determined by analyzing plasma and urine samples for concentration of CD101 obtained from subjects who received CD101 in each cohort at various time points after administration of CD101.
# [2] = Murine protein binding; format: in vitro ADME; details: used to generate free-drug plasma concentrations
# [3] = PK model, free-drug plasma concentration-time profiles of fractionated regimens; set-up: species or system mice
# Protocol: Pharmacokinetic-Pharmacodynamic Analyses. Using the data collected from the PK study, a PK model was developed in S-ADAPT. Using the developed PK model, concentration-time profiles and AUC0-168h values were computed for each dosing regimen administered in the dose-fractionation study. […] Relationships between the change in log10 CFU from start of therapy and AUC0-168h were explored.
# [4] = system: C. auris isolates; assay: Candida auris antifungal susceptibility testing (AFST), CLSI M27-A3; format: cell-based
# [5] = Modeling of CD101 total plasma concentrations versus MPC; details: modeling based on in vivo PK data
# Excerpt: Selection of resistance strains in vivo predominantly occurs over a range of drug concentrations falling between the MIC and MPC values. Dosing paradigms that result in plasma drug concentrations in excess of the MPC are therefore more desirable and effective in preventing the development of de novo mutants during the course of therapy (see, e.g., Drlica et al., J. Antimicrob. Chemother. 52:11-17, 2003). Currently approved treatment regimens for caspofungin, micafungin, and anidulafungin involve once-daily dosing at levels such that the Cmax is unlikely to be equivalent to or exceed the MPC at any point during treatment.
# [6] = system: C. albicans; assay: MIC by CLSI standards; details: Candida albicans
# [7] = system: C. glabrata; assay: MIC by CLSI standards; details: Nakaseomyces glabratus
# [8] = system: C. glabrata; assay: Neutropenic murine disseminated candidiasis model, PK/PD; details: for 1 log kill dose / Static Dose: single IP dose, 7 days
# [9] = Solubility of test articles in vehicle, visual observation; details: 10% DMSO/1% Tween 20 in 0.9% NaCl; 0.3, 1 and 3 mg/mL
# Protocol: Amphotericin B and fluconazole were in powder form. Amphotericin B was dissolved in 0.9% NaCl. Fluconazole was dissolved in water (WFI: water for injection).
compound,measurement,setting,value
"CCCCCOc1ccc(-c2ccc(-c3ccc(C(=O)N[C@H]4C[C@@H](O)[C@@H](OCC[N+](C)(C)C)NC(=O)[C@@H]5[C@@H](O)[C@@H](C)CN5C(=O)[C@H]([C@@H](C)O)NC(=O)[C@H]([C@H](O)[C@@H](O)c5ccc(O)cc5)NC(=O)[C@@H]5C[C@@H](O)CN5C(=O)[C@H]([C@@H](C)O)NC4=O)cc3)cc2)cc1 [CD101] ({pTerphenylCO(4''-OnC5H11)}-[Orn(4R-OH,5R-OCH2CH2NMe3+)]T[Hyp][hTyr(3S-OH,4S-OH)]T[Pro(3S-OH,4S-Me)]; lactam 1-C)",AUC(0-t),"[1]; 100 mg, 100 mg weekly, Day 8",390 µg·h/mL
same,Cmax,"[1]; 200 mg, 200 mg weekly, Day 1",10600 ng/mL
same,AUC(0-t),"[1]; 200 mg, 200 mg weekly, Day 1",570 µg·h/mL
same,Cmax,"[1]; 200 mg, 200 mg weekly, Day 8",12400 ng/mL
same,AUC(0-t),"[1]; 200 mg, 200 mg weekly, Day 8",813 µg·h/mL
same,Cmax,"[1]; 400 mg, 400 mg weekly, Day 1",22700 ng/mL
same,AUC(0-t),"[1]; 400 mg, 400 mg weekly, Day 1",1190 µg·h/mL
same,Cmax,"[1]; 400 mg, 400 mg weekly, Day 15",30500 ng/mL
same,AUC(0-t),"[1]; 400 mg, 400 mg weekly, Day 15",1840 µg·h/mL
same,Safety and tolerability,[1]; multiple doses up to 400 mg,safe and well tolerated
same,Infusion reactions,"[1]; primarily 400 mg cohort, most common with third dose","Four subjects in the CD101 group experienced mild, transient infusion reactions"
same,Murine protein binding value,[2],99.1%
same,Time free-drug plasma concentrations of single dose remain above the daily regimen,[3]; 2 mg/kg total dose,48 h
same,Time free-drug plasma concentrations of single dose remain above the twice weekly regimen,[3]; 2 mg/kg total dose,84 h
same,Free-drug plasma AUC0≥,[3]; CD101 2 mg/kg as a single dose,0.0654 mgh/L
same,Free-drug plasma AUC0≥,"[3]; CD101 2 mg/kg total, daily regimen",0.00948 mgh/L
same,Free-drug plasma AUC0≥,"[3]; CD101 2 mg/kg total, twice weekly",0.0303 mgh/L
same,Activity in comparison,[4]; 38 C. auris isolates,activity similar to MICA
same,Breakthrough at 48 h,[4]; C. auris strains,not with CD101
same,Number of resistant C. auris isolates,[4]; of 38 isolates,4
same,IV dose sufficient to generate concentrations in excess of 16 μg/ml (MPC),[5],≥ 150 mg
same,MIC,[6]; C. albicans 98-17,0.06 µg/mL
same,MIC,[6]; C. albicans 98-210,0.016 µg/mL
same,MIC,[6]; C. albicans 580,0.016 µg/mL
same,MIC,[6]; C. albicans K-1,0.008 µg/mL
same,MIC,"[6]; read-out: MICs, 4 C. albicans strains",0.008 to 0.06 µg/mL
same,MIC,[7]; C. glabrata 5592,0.06 µg/mL
same,MIC,[7]; C. glabrata 10956,0.5 µg/mL
same,MIC,[7]; C. glabrata 35315,0.25 µg/mL
same,MIC,"[7]; read-out: MICs, 3 C. glabrata strains",0.06 to 0.5 µg/mL
same,1 log kill Ave 24 h AUC/MIC,[8]; C. glabrata 5592,114
same,Stasis Ave 24 h AUC/MIC,[8]; C. glabrata 5592,21.7
same,1 log kill dose,[8]; C. glabrata 5592,0.51 mg/kg
same,Static Dose,[8]; C. glabrata 5592,0.03 mg/kg
same,1 log kill Ave 24 h AUC/MIC,[8]; C. glabrata 10956,301
same,Stasis Ave 24 h AUC/MIC,[8]; C. glabrata 10956,120
same,1 log kill dose,[8]; C. glabrata 10956,17.3 mg/kg
same,Static Dose,[8]; C. glabrata 10956,6.29 mg/kg
same,1 log kill Ave 24 h AUC/MIC,[8]; C. glabrata 35315,105
same,Stasis Ave 24 h AUC/MIC,[8]; C. glabrata 35315,17.9
same,1 log kill dose,[8]; C. glabrata 35315,2.39 mg/kg
same,Static Dose,[8]; C. glabrata 35315,0.34 mg/kg
same,Solubility,[9],S
